In ChEMBL document CHEMBL1136120, “Effect of catechol derivatives on cell growth and lipoxygenase activity” (Bioorg Med Chem Lett, 2003):

Experiments:
[1] = target: Polyunsaturated fatty acid lipoxygenase ALOX15 (Oryctolagus cuniculus) (UniProt P12530); experiment: Inhibition of rabbit reticulocyte 15-lipoxygenase by compound (30 uM)
MAC16 [2] = experiment: Inhibitory activity against MAC16 cell lines; type: functional, cell-based; details: Mus musculus
MAC16 [3] = experiment: Effect on metabolism of arachidonic acid for 5-HETE production through 5-LOX (5-lipoxygenase) pathway; type: functional, Mus musculus
MAC16 [4] = experiment: Effect on metabolism of arachidonic acid for 15-HETE production through 15-LOX (15-lipoxygenase) pathway; type: functional, Mus musculus
MAC13 = experiment: Inhibitory activity against MAC13 cell lines; type: functional, cell-based; details: Mus musculus
MAC16 [5] = experiment: Effect on metabolism of arachidonic acid for 12-HETE production through 12-LOX (12-lipoxygenase) pathway; type: functional, Mus musculus
MAC16 [6] = experiment: Effect on metabolism of arachidonic acid for 5-HETE production through 12-LOX (12-lipoxygenase) pathway; type: functional, Mus musculus
MAC16 [7] = experiment: Effect on metabolism of arachidonic acid for 5-HETE production through 15-LOX (15-lipoxygenase) pathway; type: functional, Mus musculus

Sequence of Polyunsaturated fatty acid lipoxygenase ALOX15 (Oryctolagus cuniculus) (P12530 whole entry, looked up): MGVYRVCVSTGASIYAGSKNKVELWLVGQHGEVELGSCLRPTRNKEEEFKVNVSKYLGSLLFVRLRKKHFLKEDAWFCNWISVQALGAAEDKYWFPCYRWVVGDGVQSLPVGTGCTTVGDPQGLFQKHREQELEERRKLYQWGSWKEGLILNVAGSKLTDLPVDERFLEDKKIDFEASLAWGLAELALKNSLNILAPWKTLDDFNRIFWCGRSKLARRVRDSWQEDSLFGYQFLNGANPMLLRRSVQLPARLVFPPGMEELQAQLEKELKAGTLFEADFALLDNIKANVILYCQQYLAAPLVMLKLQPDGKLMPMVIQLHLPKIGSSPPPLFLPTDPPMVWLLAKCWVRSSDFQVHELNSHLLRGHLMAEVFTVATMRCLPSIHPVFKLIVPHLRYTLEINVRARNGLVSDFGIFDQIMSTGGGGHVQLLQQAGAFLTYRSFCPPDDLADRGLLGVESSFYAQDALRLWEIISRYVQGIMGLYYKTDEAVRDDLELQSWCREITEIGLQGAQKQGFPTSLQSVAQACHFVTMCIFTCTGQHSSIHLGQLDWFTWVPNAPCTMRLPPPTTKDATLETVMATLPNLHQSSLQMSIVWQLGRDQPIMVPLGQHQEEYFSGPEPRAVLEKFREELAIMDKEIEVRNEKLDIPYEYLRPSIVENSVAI

Row | inhibition [1] [%] | IC50 (MAC16 [2]) [µM] | IC50 (MAC13) [µM] | Structure (SMILES) | Eicosanoid production (MAC16 [3]) [pM 2hr-1] | further results
1 | 103 |  |  | O=C(Nc1ccc(O)c(O)c1)c1ccc(NCc2ccccc2O)cc1 |  | 
2 | 100 |  |  | O=C(Nc1ccc(O)c(O)c1)c1ccc(NC(=O)c2ccccc2O)cc1 |  | 
3 | 103 |  |  | O=C(Nc1ccc(/N=C(\S)Nc2ccc(O)c(O)c2)cc1)c1ccccc1O |  | 
4 | 102 | 2.6 | 0.33 | O=C(CCc1cccc(NC(=O)c2ccccc2O)c1)Nc1ccc(O)c(O)c1 | 4.7 | Eicosanoid production (MAC16 [4]): 5.3 pM 2hr-1; Eicosanoid production (MAC16 [5]): 7.8 pM 2hr-1
5 |  | 1 | 0.9 | CCCCCCCc1ccc(C(=O)Nc2ccc(O)c(O)c2)cc1 |  | 
6 | 102 | 300 | 3 | O=C(/C=C/c1ccc(NC(=O)c2ccccc2O)cc1)Nc1ccc(O)c(O)c1 |  | 
7 | 99 |  |  | O=C(CCc1ccc(NC(=O)c2ccccc2O)cc1)Nc1ccc(O)c(O)c1 |  | 
8 |  | > 50 | > 50 | COc1ccccc1C(=O)Nc1ccc(CCC(=O)Nc2ccc3c(c2)OC(C)(CCc2ccccc2)O3)cc1 (configuration not stated) | 110 | Eicosanoid production (MAC16 [6]): 78 pM 2hr-1; Eicosanoid production (MAC16 [7]): 91.5 pM 2hr-1
9 | 3 | 4.75 | 6.3 | CC1=C(C)C(=O)C(Cc2cccnc2)=C(C)C1=O | 13.3 | Eicosanoid production (MAC16 [6]): 15 pM 2hr-1; Eicosanoid production (MAC16 [7]): 22.2 pM 2hr-1
10 | 104 |  |  | O=C(Nc1ccc(NC(=O)c2ccccc2O)cc1)Nc1ccc(O)c(O)c1 |  | 
